Reference: PubChem BioAssay (NCI)
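GI50: concentration for 50% inhibition of growth. Definition used: TGI = concentration required for complete inhibition of growth.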

Tests used:
Experiment in all cases: inhibition of tumour cell growth, NCI panel, 384-well format
RXF 393 renal = system: RXF 393 renal
HS 578T breast = system: HS 578T breast
MOLT-4 leukemia = system: MOLT-4 leukemia
KM12 colon = system: KM12 colon
NCI/ADR-RES ovarian = system: NCI/ADR-RES ovarian
EKVX NSCLC = system: EKVX NSCLC
OVCAR-8 ovarian = system: OVCAR-8 ovarian
COLO 205 colon = system: COLO 205 colon
U251 glioblastoma = system: U251 glioblastoma
MDA-MB-435 melanoma = system: MDA-MB-435 melanoma
K-562 leukemia = system: K-562 leukemia
HCT-116 colon = system: HCT-116 colon
HCT-15 colon = system: HCT-15 colon
HOP-62 NSCLC = system: HOP-62 NSCLC
SN12C renal = system: SN12C renal
MDA-MB-231 breast = system: MDA-MB-231 breast
ACHN renal = system: ACHN renal
M14 melanoma = system: M14 melanoma
LOX IMVI melanoma = system: LOX IMVI melanoma
OVCAR-5 ovarian = system: OVCAR-5 ovarian
SNB-19 CNS = system: SNB-19 CNS
NCI-H322M lung = system: NCI-H322M lung
NCI-H226 lung = system: NCI-H226 lung
DU-145 prostate = system: DU-145 prostate
SF-539 CNS = system: SF-539 CNS
HOP-92 NSCLC = system: HOP-92 NSCLC
SF-295 CNS = system: SF-295 CNS
MALME-3M melanoma = system: MALME-3M melanoma
NCI-H23 lung = system: NCI-H23 lung
SK-MEL-5 melanoma = system: SK-MEL-5 melanoma
SW-620 colon = system: SW-620 colon
MCF7 breast = system: MCF7 breast
RPMI-8226 leukemia = system: RPMI-8226 leukemia
OVCAR-3 ovarian = system: OVCAR-3 ovarian
SNB-75 CNS = system: SNB-75 CNS
CAKI-1 renal = system: CAKI-1 renal
TK-10 renal = system: TK-10 renal
CCRF-CEM leukemia = system: CCRF-CEM leukemia
UACC-62 melanoma = system: UACC-62 melanoma
HT29 colon = system: HT29 colon
OVCAR-4 ovarian = system: OVCAR-4 ovarian
SK-OV-3 ovarian = system: SK-OV-3 ovarian
UACC-257 melanoma = system: UACC-257 melanoma
SF-268 CNS = system: SF-268 CNS
786-0 renal = system: 786-0 renal
BT-549 breast = system: BT-549 breast
A498 renal = system: A498 renal
HCC-2998 colon = system: HCC-2998 colon
NCI-H460 NSCLC = system: NCI-H460 NSCLC
MDA-MB-468 breast = system: MDA-MB-468 breast
UO-31 renal = system: UO-31 renal
PC-3 prostate = system: PC-3 prostate
IGROV1 ovarian = system: IGROV1 ovarian
SK-MEL-28 melanoma = system: SK-MEL-28 melanoma

Structure (SMILES): CCN(CCO)CCCOc1ccc2c(Nc3cc(CC(=O)Nc4cccc(F)c4)[nH]n3)ncnc2c1
- GI50 (RXF 393 renal): 0.0465 µM
- TGI (RXF 393 renal): 20.6 µM
- GI50 (HS 578T breast): 0.0205 µM
- TGI (HS 578T breast): 18.5 µM
- GI50 (MOLT-4 leukemia): < 0.01 µM
- GI50 (KM12 colon): 3.46 µM
- TGI (KM12 colon): 14.6 µM
- GI50 (NCI/ADR-RES ovarian): > 100 µM
- TGI (NCI/ADR-RES ovarian): > 100 µM
- GI50 (EKVX NSCLC): 14 µM
- TGI (EKVX NSCLC): 41.7 µM
- GI50 (OVCAR-8 ovarian): 14.7 µM
- TGI (OVCAR-8 ovarian): 28.9 µM
- GI50 (COLO 205 colon): 0.0236 µM
- TGI (COLO 205 colon): 0.0915 µM
- GI50 (U251 glioblastoma): 12 µM
- TGI (U251 glioblastoma): 24.4 µM
- GI50 (MDA-MB-435 melanoma): 13.4 µM
- TGI (MDA-MB-435 melanoma): 26.3 µM
- GI50 (K-562 leukemia): 10.1 µM
- TGI (K-562 leukemia): 22.7 µM
- GI50 (HCT-116 colon): 8.43 µM
- TGI (HCT-116 colon): 21.4 µM
- GI50 (HCT-15 colon): > 100 µM
- TGI (HCT-15 colon): > 100 µM
- GI50 (HOP-62 NSCLC): 11.7 µM
- TGI (HOP-62 NSCLC): 24.1 µM
- GI50 (SN12C renal): 10.8 µM
- TGI (SN12C renal): 23.4 µM
- GI50 (MDA-MB-231 breast): 12 µM
- TGI (MDA-MB-231 breast): 24.5 µM
- GI50 (ACHN renal): > 100 µM
- TGI (ACHN renal): > 100 µM
- GI50 (M14 melanoma): 13.3 µM
- TGI (M14 melanoma): 26.6 µM
- GI50 (LOX IMVI melanoma): 10.2 µM
- TGI (LOX IMVI melanoma): 21.8 µM
- GI50 (OVCAR-5 ovarian): 18.1 µM
- TGI (OVCAR-5 ovarian): 51.2 µM
- GI50 (SNB-19 CNS): 11.7 µM
- TGI (SNB-19 CNS): 24.1 µM
- GI50 (NCI-H322M lung): 16.2 µM
- TGI (NCI-H322M lung): 38.5 µM
- GI50 (NCI-H226 lung): 14.4 µM
- TGI (NCI-H226 lung): 36.4 µM
- GI50 (DU-145 prostate): 27.7 µM
- TGI (DU-145 prostate): 92 µM
- GI50 (SF-539 CNS): 2.31 µM
- TGI (SF-539 CNS): 19.1 µM
- GI50 (HOP-92 NSCLC): 8.99 µM
- TGI (HOP-92 NSCLC): 21.2 µM
- GI50 (SF-295 CNS): 13.8 µM
- TGI (SF-295 CNS): 29.2 µM
- GI50 (MALME-3M melanoma): 11.3 µM
- TGI (MALME-3M melanoma): 23.4 µM
- GI50 (NCI-H23 lung): 11.8 µM
- TGI (NCI-H23 lung): 25.1 µM
- GI50 (SK-MEL-5 melanoma): 11.4 µM
- TGI (SK-MEL-5 melanoma): 24.8 µM
- GI50 (SW-620 colon): 13.7 µM
- TGI (SW-620 colon): 28.9 µM
- GI50 (MCF7 breast): 2.69 µM
- TGI (MCF7 breast): 18.2 µM
- GI50 (RPMI-8226 leukemia): 7.83 µM
- TGI (RPMI-8226 leukemia): 21.2 µM
- GI50 (OVCAR-3 ovarian): 1.63 µM
- TGI (OVCAR-3 ovarian): 14.7 µM
- GI50 (SNB-75 CNS): 15.1 µM
- TGI (SNB-75 CNS): 28.4 µM
- GI50 (CAKI-1 renal): 11.7 µM
- TGI (CAKI-1 renal): 26.4 µM
- GI50 (TK-10 renal): 32.5 µM
- TGI (TK-10 renal): > 100 µM
- GI50 (CCRF-CEM leukemia): < 0.01 µM
- GI50 (UACC-62 melanoma): 13.9 µM
- TGI (UACC-62 melanoma): 26.9 µM
- GI50 (HT29 colon): 13.2 µM
- TGI (HT29 colon): 26.2 µM
- GI50 (OVCAR-4 ovarian): 12.2 µM
- TGI (OVCAR-4 ovarian): 26.5 µM
- GI50 (SK-OV-3 ovarian): 9.32 µM
- TGI (SK-OV-3 ovarian): 21.4 µM
- GI50 (UACC-257 melanoma): 14.7 µM
- TGI (UACC-257 melanoma): 27.9 µM
- GI50 (SF-268 CNS): < 0.01 µM
- TGI (SF-268 CNS): 4.6 µM
- GI50 ([…]-0 renal): 16 µM
- TGI (786-0 renal): 31.7 µM
- GI50 (BT-549 breast): 12 µM
- TGI (BT-549 breast): 24.4 µM
- GI50 (A498 renal): 29.8 µM
- TGI (A498 renal): > 100 µM
- GI50 (HCC-2998 colon): 12.8 µM
- TGI (HCC-2998 colon): 25.4 µM
- GI50 (NCI-H460 NSCLC): 0.0403 µM
- TGI (NCI-H460 NSCLC): 16.9 µM
- GI50 (MDA-MB-468 breast): 0.0155 µM
- TGI (MDA-MB-468 breast): 4.03 µM
- GI50 (UO-31 renal): > 100 µM
- TGI (UO-31 renal): > 100 µM
- GI50 (PC-3 prostate): 15.1 µM
- TGI (PC-3 prostate): 28.6 µM
- GI50 (IGROV1 ovarian): 11.6 µM
- TGI (IGROV1 ovarian): 24.9 µM
- GI50 (SK-MEL-28 melanoma): 15.5 µM
- TGI (SK-MEL-28 melanoma): 29 µM
